Reference: patent publication US4276378A, “High sensitivity assays for angiotensin converting enzyme” (priority 1977, dated 1981)
Square brackets hold non-standard residues; d marks the D form. Peptide text beside a SMILES is read from it. * marks the point of attachment. pGlu = O=C1CC[C@@H](C(=O)O)N1; Boc = CC(C)(C)OC(=O)*; Bz = O=C(c1ccccc1)*; ClAc = O=C(CCl)*

What was measured:
ACE [1] = target: T1, ACE (Oryctolagus cuniculus, UniProt P12822); details: cited from earlier work
T1 sequence (P12822 34-1310): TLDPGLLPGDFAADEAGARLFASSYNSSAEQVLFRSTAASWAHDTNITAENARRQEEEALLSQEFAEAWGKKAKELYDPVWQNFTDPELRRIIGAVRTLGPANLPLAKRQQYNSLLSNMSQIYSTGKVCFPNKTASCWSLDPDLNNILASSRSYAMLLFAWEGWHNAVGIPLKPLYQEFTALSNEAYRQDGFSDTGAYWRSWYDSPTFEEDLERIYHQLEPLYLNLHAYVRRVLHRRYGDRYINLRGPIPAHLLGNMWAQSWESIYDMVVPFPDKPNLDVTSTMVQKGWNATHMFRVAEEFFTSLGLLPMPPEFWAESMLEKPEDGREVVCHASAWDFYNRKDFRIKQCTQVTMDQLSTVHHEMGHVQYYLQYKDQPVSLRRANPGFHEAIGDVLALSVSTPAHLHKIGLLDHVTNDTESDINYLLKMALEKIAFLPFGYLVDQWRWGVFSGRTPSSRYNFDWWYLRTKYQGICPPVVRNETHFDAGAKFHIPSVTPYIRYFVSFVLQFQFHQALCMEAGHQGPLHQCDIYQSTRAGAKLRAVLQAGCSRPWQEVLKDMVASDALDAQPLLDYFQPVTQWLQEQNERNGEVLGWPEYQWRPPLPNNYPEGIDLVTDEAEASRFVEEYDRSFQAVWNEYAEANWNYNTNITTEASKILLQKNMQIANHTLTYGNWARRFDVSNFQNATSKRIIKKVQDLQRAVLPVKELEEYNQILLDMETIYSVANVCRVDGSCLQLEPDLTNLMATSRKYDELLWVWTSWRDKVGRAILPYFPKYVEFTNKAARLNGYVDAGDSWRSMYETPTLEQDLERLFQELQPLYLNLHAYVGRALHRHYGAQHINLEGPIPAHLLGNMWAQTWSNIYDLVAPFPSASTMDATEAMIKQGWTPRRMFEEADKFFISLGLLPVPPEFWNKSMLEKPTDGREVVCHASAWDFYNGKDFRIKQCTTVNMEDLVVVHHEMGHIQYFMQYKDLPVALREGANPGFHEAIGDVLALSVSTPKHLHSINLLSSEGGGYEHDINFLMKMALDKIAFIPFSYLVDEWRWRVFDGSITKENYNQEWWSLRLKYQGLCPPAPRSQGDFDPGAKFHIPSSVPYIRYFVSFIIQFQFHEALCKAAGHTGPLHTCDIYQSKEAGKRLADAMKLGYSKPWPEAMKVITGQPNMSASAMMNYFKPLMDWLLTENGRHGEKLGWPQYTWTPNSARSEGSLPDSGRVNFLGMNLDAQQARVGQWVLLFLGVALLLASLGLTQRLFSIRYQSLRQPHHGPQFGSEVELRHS

ACE [2] = target: T1, ACE; details: compared with a buffer presumably lacking chloride; cited from earlier work
[3] = tested on: enzyme isolated from hog lung (ACE); details: cited from earlier work
[4] = Solvent extraction of substrate and remnant product from acidified reaction mixture; format: physicochemical; details: toluene and acidified reaction mixture in approximately equal volumes at room temperature
Text: While a variety of organic solvents may be suitable for the extraction step, it is preferred to employ toluene.

[5] = sulfate ion 0.6 M in the presence of 0.1 M chloride, pH 8

| Structure (SMILES) | ACE inhibition (ACE [1]) | also measured |
| --- | --- | --- |
| C[C@H](NC(=O)[C@H](Cc1ccccc1)NC(=O)CCl)C(=O)N1CCC[C@H]1C(=O)O [chloroacetylPheAlaPro] (ClAc-Phe-Ala-Pro-OH) | ACE inhibitors |  |
| C[C@H](NC(=O)[C@H](Cc1c[nH]c2ccccc12)NC(=O)[C@H](CCCCN)NC(=O)[C@@H]1CCC(=O)N1)C(=O)O [<GluLysTrpAla] ([pGlu]KWA-OH) | ACE inhibitors |  |
| C[C@H](NC(=O)[C@H](Cc1c[nH]c2ccccc12)NC(=O)[C@H](CCCCN)NC(=O)[C@@H]1CCC(=O)N1)C(=O)N1CCC[C@H]1C(=O)O [SQ20475, <GluLysTrpAlaPro] ([pGlu]KWAP-OH) |  | rate of cleavage in the presence of chloride (ACE [2]): more slowly |
| O=C(O)CNC(=O)CNC(=O)CNC(=O)c1ccccc1 [HipGlyGly] (Bz-Gly-Gly-Gly-OH) |  | hydrolysis in the absence of NaCl ([3]; Na2 SO4 0.001 M to 0.6 M, no NaCl): no hydrolysis; decrease of Km by sulfate [3, 5]: about 15%; increase of Vmax by sulfate [3, 5]: about 5 fold |
| C[C@H](NC(=O)[C@H](Cc1ccccc1)NC(=O)OC(C)(C)C)C(=O)N1CCC[C@H]1C(=O)O [t-butyloxycarbonylPheAlaPro] (Boc-Phe-Ala-Pro-OH) | inhibit ACE |  |
| C[C@H](NC(=O)[C@@H](N)Cc1ccccc1)C(=O)N1CCC[C@H]1C(=O)O [PheAlaPro] (H-Phe-Ala-Pro-OH) | inhibit ACE |  |
| O=C(N[C@@H](Cc1ccccc1)C(=O)O)c1ccccc1 [^3 H-benzoylPhe, benzoylPhe] |  | fraction entering the toluene phase [4]: Approximately 88% |
| C[C@H](NC(=O)[C@H](Cc1c[nH]c2ccccc12)NC(=O)[C@@H]1CCC(=O)N1)C(=O)N1CCC[C@H]1C(=O)O [<GluTrpAlaPro] ([pGlu]WAP-OH) | ACE inhibitors |  |
